Results on five compounds are retold here after patent publication US8637572B2, “Composition for promoting collagen production” (Shiseido Company, Ltd., priority 2009, dated 2014).

The test system of assay [1] is human neonatal dermal fibroblasts. Kind of assay: Type I collagen production: PIP (C-terminal peptide of type I procollagen) in culture supernatant by EIA. The class given is cell-based. The following applies: for effect on promoting type I collagen production compared to the negative control (Bonferroni/Dunn test): under every concentration condition. The procedure:
(§1) Commercially available human neonatal dermal fibroblasts (Cryo NHDF-Neo, manufactured by Sanko Junyaku Co., Ltd.) were used. The cells were inoculated in a commercially available 24-well plate to have 2×10^5 cells per well. The cells were then cultured for four hours in a commercially available medium for cell culture (D-MEM (1 g/L glucose), manufactured by Wako Pure Chemical Industries, Ltd.) to which 10% bovine fetal serum was supplemented (herein below, referred to as a “standard medium”) in a 5% CO2 and saturated water vapor atmosphere at 37° C. (degrees Celsius).
(§2) Subsequently, the medium was switched to a commercially available medium for cell culture (D-MEM (1 g/L glucose), manufactured by Wako Pure Chemical Industries, Ltd.) supplemented with 0.5% bovine fetal serum (herein below, referred to as “low-serum medium”) and cultured for approximately one day in a 5% CO2 and saturated water vapor atmosphere at 37° C. (degrees Celsius). D-aspartic acid (manufactured by Wako Pure Chemical Industries, Ltd., 018-04821) was added to the low-serum medium to have the concentration of 0.01 μM (micro-molar), 0.1 μM (micro-molar), […] μM (micro-molar), or 320 μM (micro-molar). As a positive control, magnesium L-ascorbyl phosphate (L-Ascorbic Acid Phosphate Magnesium Salt n-Hydrate, herein below, referred to as “APM”, manufactured by Wako Pure Chemical Industries, Ltd., 013-19641) was added to the low-serum medium to have the concentration of 150 μM (micro-molar), 250 μM (micro-molar), or 500 μM (micro-molar). Further, the low-serum medium described above to which neither APM nor D-aspartic acid had been added was employed as a negative control.
After completing the cell culture for two days, the culture supernatant was collected and the concentration of C-terminal peptide of type I procollagen (herein below, referred to as “PIP”) produced by human neonatal dermal fibroblasts was measured by using Procollagen type I C-peptide EIA kit (manufactured by Takara Bio Inc.) according to the manufacturer's instruction.
The cell culture, addition of amino acids, and quantification of production amount of type I collagen were carried out in the same manner as the Example 1. As an amino acid, D-alanine (manufactured by Peptide Institute, Inc., 2801) was used at the concentrations of 0.01 μM (micro-molar), 0.1 μM (micro-molar), 10 μM (micro-molar), 1000 μM (micro-molar), and 17400 μM (micro-molar). Further, the low-serum medium described above to which neither APM nor D-alanine had been added was employed as a negative control.
The cell culture, addition of amino acids, and quantification of production amount of type I collagen were carried out in the same manner as the Example 1. D-Aspartic acid (manufactured by Wako Pure Chemical Industries, Ltd., 018-04821) of 0.1 μM (micro-molar) and L-aspartic acid (manufactured by Wako Pure Chemical Industries, Ltd., 013-04832) of 0.1 μM (micro-molar) were used as amino acids. Further, the low-serum medium described above to which neither L-aspartic acid nor D-aspartic acid had been added was employed as a negative control.
The cell culture, addition of amino acids, and quantification of production amount of type I collagen were carried out in the same manner as the Example 1. D-Alanine (manufactured by Peptide Institute, Inc., 2801) of 0.1 μM (micro-molar) or 150 μM (micro-molar) and L-alanine (manufactured by Peptide Institute, Inc., 2701) of 0.1 μM (micro-molar) or 150 μM (micro-molar) were used as amino acids. Further, the low-serum medium described above to which neither L-alanine nor D-alanine had been added was employed as a negative control.

Assay [2] has the same test system. The experiment in a line: Type I atelocollagen production after pepsin treatment, by type I human collagen ELISA. The class given is cell-based. To be noted: for promotion of type I collagen production compared to the negative control (Bonferroni/Dunn test): 0.1 μM, atelocollagen ELISA. The procedure:
as §1, §2
The cell culture and addition of amino acids were carried out in the same manner as the Example 1. D-Aspartic acid (manufactured by Wako Pure Chemical Industries, Ltd., 018-04821) of 0.1 μM (micro-molar) and D-alanine (manufactured by Peptide Institute, Inc., 2801) of 0.1 μM (micro-molar) or 0.001 μM (micro-molar) were used as amino acids. Further, the low-serum medium described above to which neither D-aspartic acid nor D-alanine had been added was employed as a negative control. As a positive control, APM was added to the low-serum medium described above to have the concentration of 250 μM (micro-molar). In order to evaluate the production amount of type I collagen, type I procollagen and tropocollagen produced by human neonatal dermal fibroblasts were treated with pepsin (800 to 2500 unit/mg, P7000, manufactured by SIGMA), and the concentration of type I atelocollagen was measured by type I human collagen ELISA (EC1-E105, manufactured by AC Biotechnologies) according to the manufacturer's instruction.
For orientation: ELISA stands for enzyme-linked immunosorbent assay.

The mark [3] stands for this setting: Example 4, added at 0.1 μM, negative control 361 ng/mL.
The mark [4] stands for this setting: Example 4, added at 150 μM, negative control 361 ng/mL.
The mark [5] stands for this setting: Example 5 results (1), added at 0.1 μM, negative control 1.8 μg/mL.
The mark [6] stands for this setting: Example 3, added at 0.1 μM, negative control 361 ng/mL.

Turning to `C[C@@H](N)C(=O)O` [D-alanine], the PIP concentration in assay [1] (Example 2, added at 0.01 μM, negative control 551 ng/mL) worked out at 750 ng/mL; in assay [1] (Example 2, added at 0.1 μM, negative control 551 ng/mL), 789 ng/mL; in assay [1] (Example 2, added at 10 μM, negative control 551 ng/mL) it was 876 ng/mL; in assay [1] (Example 2, added at 1000 μM, negative control 551 ng/mL), 823 ng/mL; in assay [1] (Example 2, added at 17400 μM, negative control 551 ng/mL), 799 ng/mL; in assay [1] (setting [3]), 502 ng/mL. Besides, the PIP concentration in assay [1] (setting [4]) was found to be 450 ng/mL. Also, the “effect on promoting type I collagen production compared to the negative control (Bonferroni/Dunn test)” value in assay [1] (Example 2) is recorded as “statistically significant effect”. In addition, the “promotion of type I collagen production compared to the negative control (Bonferroni/Dunn test)” value in assay [1] (Example 4, 0.1 μM or 150 μM) is “promoted with statistical significance”; in assay [2] (Example 5 results (1)), “promoted with statistical significance”. Also, the “concentration of type I atelocollagen” value was 4.0 μg (microgram)/mL in assay [2] (setting [5]) and 2.1 μg (microgram)/mL in assay [2] (Example 5 results (2), added at 0.001 μM, negative control 1.7 μg/mL).
For the compound `C[C@H](N)C(=O)O` [L-alanine, reference compound], the PIP concentration in assay [1] (setting [3]) was 405 ng/mL; in assay [1] (setting [4]) it was 413 ng/mL.
In the case of “magnesium L-ascorbyl phosphate [APM, reference compound]”, the PIP concentration in assay [1] (Example 1, added at 150 μM, two days culture, low-serum medium, negative control 583 ng/mL) was 1183 ng/mL; in assay [1] (Example 1, added at 250 μM, negative control 583 ng/mL) it was 1666 ng/mL; in assay [1] (Example 1, added at 500 μM, negative control 583 ng/mL), 1416 ng/mL; in assay [1] (Example 2, added at 150 μM, negative control 551 ng/mL) it was 1183 ng/mL; in assay [1] (Example 2, added at 250 μM, negative control 551 ng/mL) it was 1666 ng/mL; in assay [1] (Example 2, added at 500 μM, negative control 551 ng/mL) it was 1416 ng/mL. In addition, the “effect on promoting type I collagen production compared to the negative control (Bonferroni/Dunn test)” value in assay [1] (Example 1) and in assay [1] (Example 2) was “statistically significant effect” each time. Moreover, the “concentration of type I atelocollagen” value in assay [2] (Example 5 results (1), added at 250 μM, negative control 1.8 μg/mL) was 3.9 μg (microgram)/mL; in assay [2] (Example 5 results (2), added at 250 μM, negative control 1.7 μg/mL) it was 2.6 μg (microgram)/mL.
As to `N[C@H](CC(=O)O)C(=O)O` [D-aspartic acid], in assay [1] (Example 1, 0.01 μM to 100 μM similar to APM at 150 μM), the “effect on promoting type I collagen production in comparison with APM” value is given as “prominently more potent effect on promoting type I collagen production than APM”. For the same compound, the PIP concentration in assay [1] (Example 1, added at 0.01 μM, negative control 583 ng/mL) is 1286 ng/mL; in assay [1] (Example 1, added at 0.1 μM, negative control 583 ng/mL), 1159 ng/mL; in assay [1] (Example 1, added at 10 μM, negative control 583 ng/mL), 1117 ng/mL; in assay [1] (Example 1, added at 100 μM, negative control 583 ng/mL), 1119 ng/mL; in assay [1] (Example 1, added at 320 μM, negative control 583 ng/mL) it was 1007 ng/mL; in assay [1] (setting [6]), 456 ng/mL. For the same compound, the “effect on promoting type I collagen production compared to the negative control (Bonferroni/Dunn test)” value in assay [1] (Example 1) was “statistically significant effect”. In addition, the “promotion of type I collagen production compared to the negative control (Bonferroni/Dunn test)” value in assay [1] (Example 3, 0.1 μM) is given as “promoted with statistical significance”; in assay [2] (Example 5 results (1)), “promoted with statistical significance”. In addition, in assay [2] (setting [5]), the “concentration of type I atelocollagen” value is listed as 3.8 μg (microgram)/mL.
`N[C@@H](CC(=O)O)C(=O)O` [L-aspartic acid, reference compound] gave a PIP concentration in assay [1] (setting [6]) of 406 ng/mL.
